Assay results taken from ChEMBL document CHEMBL1149375, “Design and synthesis of dipeptidyl glutaminyl fluoromethyl ketones as potent severe acute respiratory syndrome coronovirus (SARS-CoV) inhibitors” (J Med Chem, 2006).
pEC50: −log10 of the molar value. Square brackets hold non-standard residues; d marks the D form. Peptide text beside a SMILES is read from it. * marks the point of attachment. ξ: configuration not given here. Ile(3ξ) = CCC(C)[C@H](N)C(=O)O; ξE = NC(CCC(=O)O)C(=O)O; Cbz = O=C(OCc1ccccc1)*; CH2F = FC*

How the values were obtained:
Vero [1] = experiment: Cytotoxicity against Vero (CCL81) cells; assay type: functional; conditions: Chlorocebus sabaeus
SARS-CoV [2] = experiment: Inhibitory activity against SARS coronavirus 6109 replication in vero (CCL81) cells; assay type: functional, organism-based; conditions: Severe acute respiratory syndrome-related coronavirus
SARS-CoV [3] = experiment: Inhibitory activity against SARS coronavirus FFMI replication in Caco-2 cells; assay type: functional, organism-based; conditions: Severe acute respiratory syndrome-related coronavirus
SARS-CoV [4] = experiment: Inhibitory activity against SARS coronavirus FFMI replication in vero (CCL81) cells; assay type: functional, organism-based; conditions: Severe acute respiratory syndrome-related coronavirus
rhinovirus A2 = experiment: Antiviral activity against Human rhinovirus 2 in a cell based assay; assay type: functional, organism-based
Vero [5] = experiment: Selectivity index (CC50/EC50) in SARS coronavirus 6109 infected Vero cells; assay type: functional, Chlorocebus sabaeus

| Compound | CC50 (Vero [1]) | pEC50 (SARS-CoV [2]) | pEC50 (SARS-CoV [3]) | pEC50 (SARS-CoV [4]) | EC50 (rhinovirus A2) | Selectivity index (Vero [5]) |
| --- | --- | --- | --- | --- | --- | --- |
| CC(C)[C@H](NC(=O)OCc1ccccc1)C(=O)NC(CC(=O)O)C(=O)CF (stereo not given in full) | > 100 µM | < 4.00 | < 4.00 | < 4.00 |  |  |
| C[C@H](NC(=O)OCc1ccccc1)C(=O)NC(CCC(=O)N(C)C)C(=O)CF (stereo partly drawn) (Cbz-Ala-[ξE](NMe2)-CH2F) | > 100 µM | < 4.00 | < 4.00 | < 4.00 |  |  |
| CN(C)C(=O)CCC(NC(=O)CNC(=O)OCc1ccccc1)C(=O)CF (stereo not drawn) (Cbz-Gly-[ξE](NMe2)-CH2F) | > 100 µM | < 4.00 | < 4.00 | < 4.00 |  |  |
| CC(C)C[C@H](NC(=O)OCc1ccccc1)C(=O)NC(CCC(=O)N(C)C)C(=O)CF (stereo partly drawn) (Cbz-Leu-[ξE](NMe2)-CH2F) | > 100 µM | 5.60 | 5.62 | 5.44 | > 100 µg/mL | >40 |
| CC(C)[C@H](NC(=O)OCc1ccccc1)C(=O)NC(CCC(=O)N(C)C)C(=O)CF (stereo partly drawn) (Cbz-Val-[ξE](NMe2)-CH2F) | > 100 µM | 5.18 | 4.90 | 5.21 | > 100 µg/mL | >15 |
| CCC(C)[C@H](NC(=O)OCc1ccccc1)C(=O)NC(CCC(=O)N(C)C)C(=O)CF (stereo not given in full) (Cbz-[Ile(3ξ)]-[ξE](NMe2)-CH2F) | > 100 µM | 5.28 | 5.06 | 5.05 | > 100 µg/mL | >18 |
